Results published in ChEMBL document CHEMBL1138689, “Synthesis of 5a-carba-hexopyranoses and hexopyranosylamines, as well as 5a,5a'-dicarbadisaccharides, from 3,8-dioxatricyclo[4.2.1.0(2,4)]nonan-9-ol: glycosidase inhibitory activity of N-substituted 5a-carba-beta-gluco- and beta-galactopyranosylamines, and derivatives thereof” (Bioorg Med Chem Lett, 2004).

Key:
[1] = Inhibition of Alpha-Glucosidase of Bakers yeast; NI=no inhibition; design: species or system Saccharomyces cerevisiae
[2] = target: T1, Beta-galactosidase (Bos taurus, UniProt Q58D55); test: Inhibition of Beta-galactosidase of bovine liver; […]
T1 sequence (Q58D55 whole entry): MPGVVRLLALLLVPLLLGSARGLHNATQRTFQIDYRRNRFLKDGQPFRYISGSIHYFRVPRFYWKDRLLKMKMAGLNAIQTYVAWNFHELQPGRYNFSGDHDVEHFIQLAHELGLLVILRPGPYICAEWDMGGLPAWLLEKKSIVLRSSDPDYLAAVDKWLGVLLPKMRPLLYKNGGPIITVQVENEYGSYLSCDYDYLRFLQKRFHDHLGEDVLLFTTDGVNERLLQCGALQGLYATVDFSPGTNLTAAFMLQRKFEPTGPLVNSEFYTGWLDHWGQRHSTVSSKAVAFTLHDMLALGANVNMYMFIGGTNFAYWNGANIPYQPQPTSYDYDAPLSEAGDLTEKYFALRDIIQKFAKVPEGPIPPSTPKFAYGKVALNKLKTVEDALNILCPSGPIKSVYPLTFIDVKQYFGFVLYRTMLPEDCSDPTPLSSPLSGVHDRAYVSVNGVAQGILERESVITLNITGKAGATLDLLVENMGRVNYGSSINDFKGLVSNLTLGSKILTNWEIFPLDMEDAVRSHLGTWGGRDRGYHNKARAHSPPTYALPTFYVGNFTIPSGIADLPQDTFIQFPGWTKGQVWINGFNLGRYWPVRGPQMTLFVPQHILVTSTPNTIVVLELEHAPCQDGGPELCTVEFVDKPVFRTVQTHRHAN

[3] = target: T2, Tissue alpha-L-fucosidase (Bos taurus, UniProt Q2KIM0); test: Inhibition of Alpha-fucosidase of bovine kidney; NI=no inhibition
T2 sequence (Q2KIM0 whole entry): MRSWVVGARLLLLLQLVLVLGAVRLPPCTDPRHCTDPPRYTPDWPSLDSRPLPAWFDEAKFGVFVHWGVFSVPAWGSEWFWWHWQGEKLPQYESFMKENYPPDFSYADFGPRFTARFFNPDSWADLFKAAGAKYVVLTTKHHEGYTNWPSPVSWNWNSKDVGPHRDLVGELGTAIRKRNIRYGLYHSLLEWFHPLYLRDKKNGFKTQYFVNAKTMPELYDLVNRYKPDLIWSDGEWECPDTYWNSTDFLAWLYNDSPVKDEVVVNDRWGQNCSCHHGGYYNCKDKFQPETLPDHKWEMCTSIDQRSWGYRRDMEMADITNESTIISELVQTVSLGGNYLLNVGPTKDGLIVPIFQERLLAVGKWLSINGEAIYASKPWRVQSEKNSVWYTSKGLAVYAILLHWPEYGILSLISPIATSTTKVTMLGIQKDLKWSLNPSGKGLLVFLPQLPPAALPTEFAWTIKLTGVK

[4] = Inhibition of Alpha-galactosidase of green coffee beans; NI=no inhibition
[5] = Inhibition of Alpha-galactosidase of green coffee beans; […]
[6] = Inhibition of Alpha-galactosidase of green coffee beans
[7] = Compound was tested for the inhibition of alpha-Glucosidase of Bakers yeast; NI denotes no inhibition; design: species or system Saccharomyces cerevisiae

Q: Which IC50 [1] does the source give for CCCCCCCCCCCCN[C@@H]1C[C@@H]2CO[C@H](C2O)[C@H]1O (single isomer, unassigned) here?
A: Not Active

Q: And the IC50 [2]?
A: No inhibition

Q: And the IC50 [3]?
A: Not Active

Q: What about the IC50 [4] of the same compound?
A: Not Active

Q: Which IC50 [5] does the source give for CCCCCCCCNC1CC(CO)C(O)C(O)C1O (centres undefined) here?
A: > 1000 µM

Q: With OC1[C@H]2CO[C@H]1[C@@H](O)[C@H](NCc1ccccc1)C2 (single isomer, unassigned) as the compound, how does the IC50 [1] read?
A: Not Active

Q: What about the IC50 [2] of the same compound?
A: No inhibition

Q: And the IC50 [3]?
A: Not Active

Q: What about the IC50 [4] of the same compound?
A: Not Active

Q: For CC(=O)NC1CC(CO)C(O)C(O)C1O (centres undefined), which IC50 [5] is on record?
A: > 1000 µM

Q: Which IC50 [5] does the source give for CCCCCCCCNC1CC(C)C(O)C(O)C1O (centres undefined) here?
A: > 1000 µM

Q: For N[C@H]1C[C@H](CO)[C@@H](O)[C@H](O)[C@H]1O, which IC50 [6] is on record?
A: 2.8 µM

Q: With CCCCN[C@@H]1C[C@@H]2CO[C@H](C2O)[C@H]1O (single isomer, unassigned) as the compound, how does the IC50 [1] read?
A: Not Active

Q: What about the IC50 [2] of the same compound?
A: No inhibition

Q: And the IC50 [3]?
A: Not Active

Q: What about the IC50 [4] of the same compound?
A: Not Active

Q: What does the source list for CCCCCCCCCCN[C@@H]1C[C@@H]2CO[C@H](C2O)[C@H]1O (single isomer, unassigned)?
A: IC50 [1]: Not Active; IC50 [2]: No inhibition; IC50 [3]: Not Active; IC50 [4]: Not Active

Q: For CCCCCCCCN[C@@H]1C[C@@H]2CO[C@H](C2O)[C@H]1O (single isomer, unassigned), which IC50 [1] is on record?
A: Not Active

Q: What about the IC50 [2] of the same compound?
A: No inhibition

Q: What about the IC50 [3] of the same compound?
A: Not Active

Q: And the IC50 [4]?
A: Not Active

Q: Which IC50 [7] does the source give for OC1[C@H]2CO[C@H]1[C@@H](O)[C@H](NCCc1ccccc1)C2 (single isomer, unassigned) here?
A: Not Active

Q: What about the IC50 [2] of the same compound?
A: No inhibition

Q: And the IC50 [3]?
A: Not Active

Q: And the IC50 [4]?
A: Not Active

Q: Which IC50 [5] does the source give for C=C1CC(NCCCCCCCC)C(O)C(O)C1O (centres undefined) here?
A: > 1000 µM

Q: Which IC50 [1] does the source give for CCCCCCN[C@@H]1C[C@@H]2CO[C@H](C2O)[C@H]1O (single isomer, unassigned) here?
A: Not Active

Q: What about the IC50 [2] of the same compound?
A: No inhibition

Q: What about the IC50 [3] of the same compound?
A: Not Active

Q: And the IC50 [4]?
A: Not Active

Q: For CO[C@@H]1CC2COC(C1O)[C@H]2NC1CC(CO)C(O)C(O)C1O (some centres undefined), which IC50 [6] is on record?
A: 1.2 µM
